Where two headings read alike, the source gives them in different places.
Tests used:
[1] = molecular target: T1, G2019S LRRK2 (Homo sapiens, UniProt Q5S007, G2019S); experiment: LRRK2 degradation assay, HiBit-tagged G2019S LRRK2 expressed from plasmid in HEK293 cells (Nano-Glo Dual-Luciferase); format: cell-based; details: 24 hours
T1 construct: expressed in transfected cells; host or cells: HEK293 (ATCC CRL-1573), transient transfection, mammalian expression vector with ubiquitin promoter
Text: (§1) Exemplary Assay for Testing LRRK2 Degradation Driven by Exemplary Hetero-Bifunctional Compounds Designed to Target LRRK2
(§2) The assay measures the degradation of wildtype and G2019S LRRK2 tagged with a HiBit tag on the C-terminus of the protein that was expressed from a mammalian expression vector, driven by the ubiquitin promoter in HEK293 cells. Each compound dose-response was repeated on two separate days, on three separate plates each day.
(§3) Plasmid Preparation. Transfection mixes were assembled as follows and incubated for 30 minutes at room temperature. In a 15 mL tube, 5.25 mL Opti-MEM (no additions) was mixed with 17 μL Firefly Luciferase plasmid at 1 μg/μL and 158 μL WT plasmid DNA at 1 μg/μL (175 μg total DNA) were mixed by flicking. In a new 15 mL tube, 5.25 mL OptiMEM was mixed with 17 μL Firefly Luciferase plasmid at 1 μg/μL and 158 μL G2019S plasmid DNA at 1 μg/μL (175 μg total DNA) were mixed by flicking. X-tremeGene HP was mixed thoroughly using a vortex. Next, 175 μL was added to each tube and flicked to mix. Both tubes were left to incubate for 30 minutes at room temperature.
(§4) While the transfection mixes were incubating, HEK293 cells (acquired from ATCC; ATCC CRL-1573) were harvested with trypsin. Once cells are detached, the cells were resuspended in 12 mL OptiMEM+5% FBS and transferred to a 50 mL tube. The cells were mixed well and counted. Using OptiMEM+5% FBS, the cells were diluted in two 250 mL conical tubes at 0.71×10^6 cells/mL in 70 mL. One tube was labeled “WT” and the other “G2019S”. The WT and G2019S transfection mixes were added dropwise to the corresponding 250 mL tubes. The tubes were mixed first by pipetting then by swirling. The tubes were incubated at room temperature for at least 5 minutes.
(§5) Each tube was swirled before dispensing and after every three plates. Seventy microliters of cells were dispensed with WT or G2019S DNA to seven plates each. Three plates of each were tested with compound plate one (preparation described below) and three plates of each were tested with compound plate two (preparation described below). The first plate from each set served as a “prime” plate and was not used to test compounds. Each plate was incubated in the hood for 10 minutes before placing in the 37° C. incubator for 24 hours.
(§6) Preparation of Compound and Assay Plates. Two compound plates were made using 96 well polypropylene plates. Compounds were made up at 10 mM and were diluted to 1 mM in 30 μL. Each dose response curve included a well of DMSO, as a negative control and for normalization, and a well of 0.5 μM of Compound 4 as a positive control. In addition to seven test compounds, each plate also included a dose response of Compound 4. The compound plates were spun down along at 1200 rpm for 2 minutes.
(§7) The two compound plates were then mixed and 2 μL was diluted in intermediate plates having 248 μL of Opti-Mem in each well. Next, 10 μL diluted compounds from the intermediate plates were added to each test plate (three WT and three G2019S plates per compound plate for a total of 12 assay plates). The plates were incubated for 24 hours at 37° C.
(§8) All assay plates and all Nano-Glo Dual-Luciferase Reporter Assay System components (except for the DLR substrate) were equilibrated to room temperature. Next, the luciferase buffer was mixed with the lyophilized amber bottle until fully dissolved, and 75 μL of the luciferase mixture was added to each well of each assay plate. The assay plates were incubated for 10 minutes at room temperature with shaking for at least 5 minutes, and then read on a plate reader.
(§9) Developing Plates and Analyzing Data. One milliliter of DLR substrate and 1 mL LgBiT Protein were added to the Stop and Glo buffer, and 75 μL of the mixture was added to each well of each plate. Optically clear seals were added to each plate and each plate was incubated for 20 minutes with shaking for at least 10 minutes, and then read on a plate reader. […]

[2] = molecular target: T2, wildtype LRRK2 (Homo sapiens, UniProt Q5S007); experiment: LRRK2 degradation assay, HiBit-tagged wildtype LRRK2 expressed from plasmid in HEK293 cells (Nano-Glo Dual-Luciferase); format: cell-based; details: 24 hours; for Dmax: read-out: **WT Dmax (%); for DC50: read-out: *WT DC50
T2 construct: expressed in transfected cells; host or cells: HEK293 (ATCC CRL-1573), transient transfection, mammalian expression vector with ubiquitin promoter
Text: as §1, §2, §3, §4, §5, §6, §7, §8, §9

[3] = HiBit-tagged G2019S LRRK2 in HEK293 cells
[4] = HiBit-tagged wildtype LRRK2 in HEK293 cells
[5] = HiBit-tagged G2019S LRRK2, HEK293 cells
[6] = HiBit-tagged wildtype LRRK2, HEK293 cells

T1 sequence (Q5S007 whole entry G2019S): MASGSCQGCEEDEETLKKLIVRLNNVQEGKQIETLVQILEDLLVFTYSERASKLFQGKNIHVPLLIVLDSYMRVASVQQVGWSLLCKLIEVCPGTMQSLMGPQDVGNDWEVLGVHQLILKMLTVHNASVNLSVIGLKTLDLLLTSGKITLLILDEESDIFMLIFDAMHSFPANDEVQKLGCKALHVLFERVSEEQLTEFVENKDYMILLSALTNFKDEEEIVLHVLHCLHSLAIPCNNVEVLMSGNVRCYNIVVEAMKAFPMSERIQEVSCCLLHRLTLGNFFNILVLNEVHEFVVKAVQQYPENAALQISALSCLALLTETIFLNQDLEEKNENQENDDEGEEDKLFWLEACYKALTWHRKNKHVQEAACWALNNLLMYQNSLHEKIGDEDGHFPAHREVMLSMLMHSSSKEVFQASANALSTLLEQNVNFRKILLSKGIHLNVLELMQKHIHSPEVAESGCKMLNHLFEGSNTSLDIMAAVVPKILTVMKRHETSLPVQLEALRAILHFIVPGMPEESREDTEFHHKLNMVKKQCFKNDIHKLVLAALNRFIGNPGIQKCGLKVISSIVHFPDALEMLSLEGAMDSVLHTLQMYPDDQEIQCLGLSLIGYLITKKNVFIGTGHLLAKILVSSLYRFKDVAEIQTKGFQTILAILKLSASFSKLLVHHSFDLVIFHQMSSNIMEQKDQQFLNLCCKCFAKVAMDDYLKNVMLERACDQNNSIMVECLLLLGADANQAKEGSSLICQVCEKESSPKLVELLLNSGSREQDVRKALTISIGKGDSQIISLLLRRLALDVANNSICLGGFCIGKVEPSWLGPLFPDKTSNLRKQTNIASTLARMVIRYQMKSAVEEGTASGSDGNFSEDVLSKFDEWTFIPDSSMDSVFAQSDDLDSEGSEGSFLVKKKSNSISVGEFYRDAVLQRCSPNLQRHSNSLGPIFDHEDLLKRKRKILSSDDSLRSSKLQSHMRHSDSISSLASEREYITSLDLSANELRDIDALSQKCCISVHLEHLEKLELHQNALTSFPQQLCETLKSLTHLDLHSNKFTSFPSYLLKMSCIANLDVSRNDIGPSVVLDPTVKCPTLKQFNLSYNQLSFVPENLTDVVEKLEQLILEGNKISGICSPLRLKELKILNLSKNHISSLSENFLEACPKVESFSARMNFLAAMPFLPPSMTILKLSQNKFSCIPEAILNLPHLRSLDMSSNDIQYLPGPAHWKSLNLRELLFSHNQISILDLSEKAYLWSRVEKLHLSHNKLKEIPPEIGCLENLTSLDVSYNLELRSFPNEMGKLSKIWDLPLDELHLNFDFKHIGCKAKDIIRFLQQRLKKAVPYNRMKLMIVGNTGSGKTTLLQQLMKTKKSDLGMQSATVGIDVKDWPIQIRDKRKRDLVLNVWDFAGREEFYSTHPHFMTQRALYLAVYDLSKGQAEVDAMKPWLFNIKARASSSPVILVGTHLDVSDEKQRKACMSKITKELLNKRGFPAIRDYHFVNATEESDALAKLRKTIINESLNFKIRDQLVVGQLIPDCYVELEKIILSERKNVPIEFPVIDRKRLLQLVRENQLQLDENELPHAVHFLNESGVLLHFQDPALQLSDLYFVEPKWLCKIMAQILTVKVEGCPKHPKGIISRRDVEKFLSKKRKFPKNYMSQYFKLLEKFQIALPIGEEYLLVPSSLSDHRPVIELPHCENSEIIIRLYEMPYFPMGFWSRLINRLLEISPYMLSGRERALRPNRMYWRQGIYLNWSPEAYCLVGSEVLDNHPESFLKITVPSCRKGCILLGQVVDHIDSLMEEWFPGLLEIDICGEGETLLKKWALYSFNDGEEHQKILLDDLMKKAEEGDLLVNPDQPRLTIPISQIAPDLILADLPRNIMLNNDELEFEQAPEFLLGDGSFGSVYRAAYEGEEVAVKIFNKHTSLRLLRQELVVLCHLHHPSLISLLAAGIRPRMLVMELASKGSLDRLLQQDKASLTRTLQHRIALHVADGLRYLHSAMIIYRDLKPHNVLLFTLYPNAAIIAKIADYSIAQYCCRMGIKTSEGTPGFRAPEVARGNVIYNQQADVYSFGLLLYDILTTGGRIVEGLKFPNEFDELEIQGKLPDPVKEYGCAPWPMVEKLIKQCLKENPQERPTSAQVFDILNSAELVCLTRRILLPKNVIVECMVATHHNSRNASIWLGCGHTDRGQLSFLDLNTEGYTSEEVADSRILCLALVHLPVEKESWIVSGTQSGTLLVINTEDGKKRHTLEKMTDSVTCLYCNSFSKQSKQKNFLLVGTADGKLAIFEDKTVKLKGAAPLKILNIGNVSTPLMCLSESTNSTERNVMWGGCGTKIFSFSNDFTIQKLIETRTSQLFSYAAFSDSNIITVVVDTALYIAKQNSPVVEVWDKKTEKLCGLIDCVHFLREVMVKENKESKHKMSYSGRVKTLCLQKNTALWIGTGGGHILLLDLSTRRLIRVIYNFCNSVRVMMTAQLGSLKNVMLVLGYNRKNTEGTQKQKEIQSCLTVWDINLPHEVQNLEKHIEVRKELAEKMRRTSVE
T2 sequence (Q5S007 whole entry): as the sequence (Q5S007 whole entry G2019S) above, with S2019G counted along it

Compound | DC50 [1, 3] [nM] | Dmax [1, 3] [%] | Dmax [2, 4] [%] | DC50 [2, 4] [nM] | DC50 [1, 5] [nM] | Dmax [1, 5] [%] | Dmax [2, 6] [%] | DC50 [2, 6] [nM]
CC1(Oc2ccc3[nH]nc(-c4ccnc(N5CCC(CN6CCC(F)(CN7CCN(c8ccc9c(c8)C(=O)N(C8CCC(=O)NC8=O)C9=O)CC7)CC6)CC5)c4)c3c2)CC1 (stereo not shown) [Compound 82, 2-(2,6-dioxo-3-piperidyl)-5-[4-[[4-fluoro-1-[[1-[4-[5-(1-methylcyclopropoxy)-1H-indazol-3-yl]-2-pyridyl]-4-piperidyl]methyl]-4-piperidyl]methyl]piperazin-1-yl]isoindoline-1,3-dione] | 10 to 50 | 50 to 70 | 50 to 70 | 10 to 50 |  |  |  | 
CC1(Oc2ccc3n[nH]c(-c4cc(N5CCN(Cc6ccc(CN7CCN(c8ccc9c(c8)C(=O)N(C8CCC(=O)NC8=O)C9=O)CC7)cc6)CC5)ncn4)c3c2)CC1 (stereo not shown) [Compound 169, 2-(2,6-dioxo-3-piperidyl)-5-[4-[[4-[[4-[6-[5-(1-methylcyclopropoxy)-2H-indazol-3-yl]pyrimidin-4-yl]piperazin-1-yl]methyl]phenyl]methyl]piperazin-1-yl]isoindoline-1,3-dione] |  |  |  |  | 10 to 50 | 50 to 70 | < 50 | < 10
CC1(Oc2ccc3[nH]nc(-c4cc(N5CCC(CN6CCN(CC7CCN(c8cc9c(cc8F)C(=O)N(C8CCC(=O)NC8=O)C9=O)CC7)CC6)CC5)ncn4)c3c2)CC1 (stereo not shown) [Compound 107, 2-(2,6-dioxo-3-piperidyl)-5-fluoro-6-[4-[[4-[[1-[6-[5-(1-methylcyclopropoxy)-1H-indazol-3-yl]pyrimidin-4-yl]-4-piperidyl]methyl]piperazin-1-yl]methyl]-1-piperidyl]isoindoline-1,3-dione] | 10 to 50 | 50 to 70 | < 50 | < 10 |  |  |  | 
CC1(Oc2ccc3n[nH]c(-c4cc(N5CCC(CN6CCC(CN7CCN(c8ccc9c(c8)C(=O)N(C8CCC(=O)NC8=O)C9=O)CC7)CC6)CC5)ncn4)c3c2)CC1 (stereo not shown) [Compound 67, 2-(2,6-dioxo-3-piperidyl)-5-[4-[[1-[[1-[6-[5-(1-methylcyclopropoxy)-2H-indazol-3-yl]pyrimidin-4-yl]-4-piperidyl]methyl]-4-piperidyl]methyl]piperazin-1-yl]isoindoline-1,3-dione] | < 10 | ≥ 70 | ≥ 70 | < 10 |  |  |  | 
CC1(Oc2ccc3[nH]nc(-c4ccnc(N5CCOC6(CN(CC7CCN(CC8CCN(c9ccc%10c(c9)C(=O)N(C9CCC(=O)NC9=O)C%10=O)CC8)CC7)C6)C5)c4)c3c2)CC1 (stereo not shown) [Compound 151, 2-(2,6-dioxo-3-piperidyl)-5-[4-[[4-[[8-[4-[5-(1-methylcyclopropoxy)-1H-indazol-3-yl]-2-pyridyl]-5-oxa-2,8-diazaspiro[3.5]nonan-2-yl]methyl]-1-piperidyl]methyl]-1-piperidyl]isoindoline-1,3-dione] | < 10 | 50 to 70 | 50 to 70 | < 10 |  |  |  | 
C[C@H]1CN(c2cc(-c3n[nH]c4ccc(OC5(C)CC5)cc34)ncn2)CCN1CC1CCN(CC2CCN(c3cc4c(cc3F)C(=O)N(C3CCC(=O)NC3=O)C4=O)CC2)CC1 (stereo partly drawn) [Compound 73, 2-(2,6-dioxo-3-piperidyl)-5-fluoro-6-[4-[[4-[[(2S)-2-methyl-4-[6-[5-(1-methylcyclopropoxy)-2H-indazol-3-yl]pyrimidin-4-yl]piperazin-1-yl]methyl]-1-piperidyl]methyl]-1-piperidyl]isoindoline-1,3-dione] | < 10 | < 50 | < 50 | < 10 |  |  |  | 
CC1(Oc2ccc3[nH]nc(-c4cc(N5CCC(CC6CCN(C(=O)C7CCN(c8ccc9c(c8)C(=O)N(C8CCC(=O)NC8=O)C9=O)CC7)CC6)CC5)ncn4)c3c2)CC1 (stereo not shown) [Compound 92, 2-(2,6-dioxo-3-piperidyl)-5-[4-[4-[[1-[6-[5-(1-methylcyclopropoxy)-1H-indazol-3-yl]pyrimidin-4-yl]-4-piperidyl]methyl]piperidine-1-carbonyl]-1-piperidyl]isoindoline-1,3-dione] | 10 to 50 | 50 to 70 | 50 to 70 | < 10 |  |  |  | 
CC1(Oc2ccc3n[nH]c(-c4cc(N5CCN(CC6CC7(CCN(CC8CCN(c9ccc%10c(c9)C(=O)N(C9CCC(=O)NC9=O)C%10=O)CC8)CC7)C6)CC5)ncn4)c3c2)CC1 (stereo not shown) [Compound 177, 2-(2,6-dioxo-3-piperidyl)-5-[4-[[2-[[4-[6-[5-(1-methylcyclopropoxy)-2H-indazol-3-yl]pyrimidin-4-yl]piperazin-1-yl]methyl]-7-azaspiro[3.5]nonan-7-yl]methyl]-1-piperidyl]isoindoline-1,3-dione] |  |  |  |  | 10 to 50 | 50 to 70 | 50 to 70 | 10 to 50
CC1(Oc2ccc3[nH]nc(-c4ccnc(N5CC6(CCN6CC6CCN(CC7CCN(c8ccc9c(c8)C(=O)N(C8CCC(=O)NC8=O)C9=O)CC7)CC6)C5)c4)c3c2)CC1 (stereo not shown) [Compound 163, 2-(2,6-dioxo-3-piperidyl)-5-[4-[[4-[[6-[4-[5-(1-methylcyclopropoxy)-1H-indazol-3-yl]-2-pyridyl]-1,6-diazaspiro[3.3]heptan-1-yl]methyl]-1-piperidyl]methyl]-1-piperidyl]isoindoline-1,3-dione] |  |  |  |  | 10 to 50 | < 50 | < 50 | 10 to 50

The next lines start with the values.

DC50 [1, 3] [nM] | Dmax [1, 3] [%] | Dmax [2, 4] [%] | DC50 [2, 4] [nM] | DC50 [1, 5] [nM] | Dmax [1, 5] [%] | Dmax [2, 6] [%] | DC50 [2, 6] [nM] | Compound
 |  |  |  | < 10 | ≥ 70 | ≥ 70 | < 10 | CC1(Oc2ccc3[nH]nc(-c4cc(N5CCN(C[C@@H]6CN(CCC7CCN(c8ccc9c(c8)C(=O)N(C8CCC(=O)NC8=O)C9=O)CC7)CCO6)CC5)ncn4)c3c2)CC1 (stereo partly drawn) [Compound 158, 2-(2,6-dioxo-3-piperidyl)-5-[4-[2-[(2R)-2-[[4-[6-[5-(1-methylcyclopropoxy)-1H-indazol-3-yl]pyrimidin-4-yl]piperazin-1-yl]methyl]morpholin-4-yl]ethyl]-1-piperidyl]isoindoline-1,3-dione]
< 10 | 50 to 70 | 50 to 70 | < 10 |  |  |  |  | CC1(Oc2ccc3[nH]nc(-c4cc(N5CCN(C[C@@H]6CCN(CC7CCN(c8ccc9c(c8)C(=O)N(C8CCC(=O)NC8=O)C9=O)CC7)C(=O)C6)CC5)ncn4)c3c2)CC1 (single isomer, unassigned) [Compound 103]
< 10 | 50 to 70 | < 50 | < 10 |  |  |  |  | CC1(Oc2ccc3[nH]nc(-c4cc(N5CCN(CC6(F)CCN(CC7CCN(c8ccc9c(c8)C(=O)N(C8CCC(=O)NC8=O)C9=O)CC7)CC6)CC5)ncn4)c3c2)CC1 (stereo not shown) [Compound 79, 2-(2,6-dioxo-3-piperidyl)-5-[4-[[4-fluoro-4-[[4-[6-[5-(1-methylcyclopropoxy)-1H-indazol-3-yl]pyrimidin-4-yl]piperazin-1-yl]methyl]-1-piperidyl]methyl]-1-piperidyl]isoindoline-1,3-dione]
< 10 | 50 to 70 | 50 to 70 | < 10 |  |  |  |  | CC1(Oc2ccc3[nH]nc(-c4cc(N5CCC(C(=O)N6CCC(CN7CCN(c8ccc9c(c8)C(=O)N(C8CCC(=O)NC8=O)C9=O)CC7)CC6)CC5)ncn4)c3c2)CC1 (stereo not shown) [Compound 86, 2-(2,6-dioxopiperidin-3-yl)-5-(4-{[1-(1-{6-[5-(1-methylcyclopropoxy)-1H-indazol-3-yl]pyrimidin-4-yl}piperidine-4-carbonyl)piperidin-4-yl]methyl}piperazin-1-yl)-2,3-dihydro-1H-isoindole-1,3-dione]
